Measurements: publication PMC12259270, “Sensory neuron–expressed FGF13 controls nociceptive signaling in diabetic neuropathy models” (The Journal of Clinical Investigation, 2025)
Values joined by “and” are separate entries in the source; they are usually repeats but may differ in a detail not shown here. Equal entries are not always repeated. Residues, ends and D or L forms follow the SMILES beside them. *: point of attachment. Cbz = O=C(OCc1ccccc1)*; OtBu = CC(C)(C)O*

Legend:
C57BL/6 mice [1] = experiment: Capsaicin-induced mechanical hypersensitivity (von Frey); format: in vivo, mouse; design: LVF Mean / HVF Mean / MECHANICAL LVF / MECHANICAL HVF: unit not given here; conditions: Cap + Bup 7 mg/mL
Source text: (§1) FGF13 is a neuronal gene ubiquitously transcribed in DRG neuronal subtypes ([43]–[46]). To investigate neuronal subtype enrichment of the FGF13 transcript, we examined a gene panel including FGF13, SCN9A, and several marker genes in mouse single-cell transcriptomic data (Supplemental Figure 10) ([43]–[46]). […] Critically, putative silent nociceptors marked by somatostatin (SST), and the nicotinic cholinergic receptor α-3 subunit (CHRNA3) contribute to development of inflammatory mechanical hyperalgesia ([47]). […] We next determined if PW164 modulation of the FGF13/Nav1.7 complex could suppress nociceptive behaviors in WT mice. We tested whether intraplantar (i.pl.) injection (5 μL) of PW164 altered hind paw withdrawal in response to low or high intensity von Frey filament (LVF or HVF, respectively) mechanical stimulation (Figure 3A). […] Next, we evaluated PW164’s effect on mechanical and thermal hindpaw sensitivity in capsaicin-induced nociceptive hypersensitivity models. […] Next, we performed in vivo target validation in WT mice that received an intrathecal (i.t.) injection in L5 of AAV2-shFGF13 (6 μL, viral titers 1 × 10^12 vector genomes (vg)/mL); a control group received an equal number of AAV2-shCTRL particles (Figure 3C).
(§2) Experiments were performed on 6- to 12-week-old male C57BL/6 mice (The Jackson Laboratory, Bar Harbor, ME) housed in the AAALAC-accredited facility at the University of Texas Medical Branch. Mice were group-housed with up to 5 mice per cage on a 12-to-12-hour light–dark cycle and had access to water and food ad libitum. All protocols were approved by the Institutional Animal Care and Use Committee (IACUC) at the University of Texas Medical Branch and in accordance with the National Institutes of Health (NIH) guidelines.
(§3) PW164 and ZL192 were dissolved in DMSO and saline in a ratio of 1:10. 0.1% capsaicin (10% ethanol, 10% Tween-20 in saline; Sigma-Aldrich). All the compounds were injected at the center of the hind paw. The control group received a DMSO-saline mixture. […]
Bupivacaine was prepared from a 1:2 dilution with sterile 0.9% saline and locally injected in the center of the paw at 7 mg/ml.
(§4) AAV2 viral particles packaged by the University of North Carolina Gene Therapy Core Facility (viral titer ranging […]
(§5) Before intrathecal injections in the lumbar region, mice were maintained in an anesthetizing box with 2% isoflurane to induce unconsciousness. Six microliters of viral vector were gently injected into the CSF through a 30-gauge needle with a Hamilton syringe in the lumbar area between vertebrae L4 and L5 by gently gripping the iliac crest of the mouse and inserting the needle with an angle of 45°. The correct procedure was confirmed by the mouse’s tail reflexiv e flick.
(§6) Assessment of mechanical sensitivity
Mechanical sensitivity was assessed using von Frey filaments (VFF 0.1g and 1.0 g force) in mice that were either naïve or received intraplantar (i.p.) injection of capsaicin. VFFs were applied at the injection site (capsaicin or […]

C57BL/6 mice [2] = experiment: Mechanical sensitivity (von Frey, LVF/HVF) after intraplantar injection, mice without capsaicin; format: in vivo, mouse; design: key to LVF Mean / HVF Mean: % withdrawals from 10 consecutive von Frey stimulations; conditions: Bup 7 mg/mL, without capsaicin
Method: as §2, §3, §6
Mechanical sensitivity was assessed using von Frey filaments (VFF 0.1g and 1.0 g force) in mice that were either naïve or received intraplantar (i.p.) injection of capsaicin. VFFs were applied at the injection site (capsaicin or drug unilateral intraderma l injection at the center of the hind paw using a 30 -G needle). VFF of 1.0 g force, which evokes a 40–60% withdrawal response in the naïve condition, was used to detect hyperalgesia, and VFF of 0.1 g […]
mechanical sensitivity was expressed as % withdrawals from 10 consecutive stimulations. […]

[3] = tested on: FGF13 and Nav1.7 colocalization in hIPSC-derived sensory neurons; experiment: Immunocytochemistry, FGF13 and Nav1.7 colocalization in RealDRG; format: cell-based, human; conditions: Capsaicin, N 39
Method: After treatment, coverslips containing hIPSC-derived sensory neurons were fixed with 4% PFA/4% sucrose for 15 minutes, permeabilized for 5 minutes using 0.1% Triton X-100 in PBS and blocked with 10% Normal Goat Serum (ThermoFisher Scientific) for 30 minutes. Cells were stained using primary antibodies ms IgG1 Nav1.7 […]
Tubulin (Abcam, catalog # ab18207; 1:2000) overnight at 4∘C in 3% BSA. Isotype specific secondary antibodies ms IgG1 Alexa 568 (Life Technologies, catalog # A-21124; 1:200), ms IgG2a Alexa 647 (Life Technologies, […]
applied for 2 hours. After washing, cell membranes were labeled using CellBrite Cytoplasmic Membrane Dye (Biotium) according to manufacturer directions. After final washing, coverslips were mounted using ProLong Gold Antifade Mountant (ThermoFisher). hIPSC-derived sensory neurons were fixed at day 14 in buffered formalin (10 wt%/vol%, Fisher Scientific 23-305-510) for 10 minutes, permeabilized in DPBS plus Triton X-100 (0.2 vol%/vol%, MilliporeSigma, T8787-100ML), blocked in DPBS plus bovine serum albumin (1 wt%/vol%, MilliporeSigma A3059-100G) and Tween-20 (0.1 vol% MilliporeSigma P1379) for 2 hours, and incubated with primary antibodies overnight. Cultures were washed twice with blocking solution and incubated 1 hour with secondary antibodies. 4′,6-diamidino-2-phenylindole dilactate (DAPI, Thermo Fisher D3571) was added for 10 minutes before washing three times in DPBS. Antibodies used include: TUJ1 (1:250, MilliporeSigma MAB1637), […]
and Alexa Fluor 555 Donkey anti-Rabbit (1:500, Thermo Fisher Scientific A-31572). Negative controls included

C57BL/6 mice [4] = experiment: Capsaicin-induced thermal hypersensitivity (Hargreaves); format: in vivo, mouse; conditions: Figure 3 B lower block (Vehicle vs PW 164), individual animals 1-20
Source text: as §1, §2, §3, §4
as §5, with “flick. […]” for “flick.”

[5] = target: T1, FGF13 (protein used in surface plasmon resonance) (UniProt Q92913-2 1-192); experiment: SPR; cell-free; FGF13 with Nav1.7 CTD, no compound; conditions: both partners purified
T1 construct: Fibroblast growth factor 13; also called fibroblast growth factor 13
T1 sequence (looked up): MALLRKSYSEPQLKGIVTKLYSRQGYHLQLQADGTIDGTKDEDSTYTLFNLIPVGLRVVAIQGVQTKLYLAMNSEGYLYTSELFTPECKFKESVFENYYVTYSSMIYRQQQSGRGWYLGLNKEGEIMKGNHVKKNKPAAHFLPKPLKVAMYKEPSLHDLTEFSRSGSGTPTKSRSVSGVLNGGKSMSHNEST

Molecule: CCCCN1CCCCC1C(=O)Nc1c(C)cccc1C (racemic) [Bup]
- HVF Mean (C57BL/6 mice [1]; Time (h) 0): 52
- LVF Mean (C57BL/6 mice [1]; Time (h) 0): 0
- HVF Mean (C57BL/6 mice [1]; Time (h) 0.5): 100
- LVF Mean (C57BL/6 mice [1]; Time (h) 0.5): 66
- HVF Mean (C57BL/6 mice [1]; Time (h) 0.75): 6
- LVF Mean (C57BL/6 mice [1]; Time (h) 0.75): 0
- HVF Mean (C57BL/6 mice [1]; Time (h) 1): 58
- LVF Mean (C57BL/6 mice [1]; Time (h) 1): 0
- HVF Mean (C57BL/6 mice [1]; Time (h) 1.5): 98
- LVF Mean (C57BL/6 mice [1]; Time (h) 1.5): 22
- HVF Mean (C57BL/6 mice [1]; Time (h) 2): 100
- LVF Mean (C57BL/6 mice [1]; Time (h) 2): 52
- HVF Mean (C57BL/6 mice [2]; Time (h) 0): 52
- HVF Mean (C57BL/6 mice [2]; Time (h) 0.5): 8
- HVF Mean (C57BL/6 mice [2]; Time (h) 1): 58
- HVF Mean (C57BL/6 mice [2]; Time (h) 1.5): 54
- HVF Mean (C57BL/6 mice [2]; Time (h) 2): 54

Molecule: COc1cc(CNC(=O)CCCC/C=C/C(C)C)ccc1O [Capsaicin]
- Figure S6C, Mean ([3]; Distance 7.1166 microns): 236.646
- Figure S6C, Mean ([3]; Distance 7.2484 microns): 412.139
- Figure S6C, Mean ([3]; Distance 7.3801 microns): 777.284
- Figure S6C, Mean ([3]; Distance 7.5119 microns): 1294.71
- Figure S6C, Mean ([3]; Distance 7.6437 microns): 1747.86
- Figure S6C, Mean ([3]; Distance 7.7755 microns): 1996.82
- Figure S6C, Mean ([3]; Distance 7.9073 microns): 2041.85
- Figure S6C, Mean ([3]; Distance 8.0391 microns): 2010.31
- Figure S6C, Mean ([3]; Distance 8.1709 microns): 1934.86
- Figure S6C, Mean ([3]; Distance 8.3027 microns): 1848.17
- Figure S6C, Mean ([3]; Distance 8.4344 microns): 1793.9
- Figure S6C, Mean ([3]; Distance 8.5662 microns): 1740.61
- Figure S6C, Mean ([3]; Distance 8.698 microns): 1651.29
- Figure S6C, Mean ([3]; Distance 8.8298 microns): 1564.27
- Figure S6C, Mean ([3]; Distance 8.9616 microns): 1524.73
- Figure S6C, Mean ([3]; Distance 9.0934 microns): 1474.75

Molecule: COC(=O)[C@@H](NC(=O)[C@H](CCC(=O)OC(C)(C)C)NC(=O)[C@H](CC(C)C)NC(=O)[C@@H]1CCCN1C(=O)OCc1ccccc1)C(C)C [PW 164] (Cbz-PLE(OtBu)V-OMe)
- Paw withdrawal latency (C57BL/6 mice [4]; Time (h) 0.5): 6.8 s and 5.5 s (2×) and 2.93 s and 6.4 s and 5.33 s and 6.3 s and 4.8 s and 4.23 s and 4.87 s and 3.47 s and 5.6 s and 4.1 s and 4.4 s and 2.87 s and 8.3 s and 5.93 s and 5 s and 4.2 s and 6.1 s
- Paw withdrawal latency (C57BL/6 mice [4]; Time (h) 1): 11.43 s and 10.43 s and 13.57 s and 12.1 s and 12.5 s and 12.33 s and 11.6 s and 11.33 s and 13.2 s and 15.4 s and 16 s and 12.63 s and 16.3 s and 11.83 s and 17.37 s and 20 s and 12.8 s and 12.17 s and 18.37 s and 16.47 s
- Paw withdrawal latency (C57BL/6 mice [4]; Time (h) 1.5): 12.6 s and 12.77 s and 10.5 s and 11.3 s and 13.4 s and 7.9 s and 8 s and 9.27 s and 11.73 s and 9.97 s and 16.43 s and 14.37 s and 15.37 s and 12.23 s and 13.13 s and 18.63 s and 15.2 s and 17.17 s and 10.23 s and 9.23 s
- Paw withdrawal latency (C57BL/6 mice [4]; Time (h) 2.5): 12.63 s and 12.73 s and 10.73 s and 10.97 s and 13.83 s and 8.87 s and 8.63 s and 9.6 s and 15.4 s and 19.5667 s and 15.7667 s and 13.6 s and 14.9333 s (2×) and 14.7333 s and 11.4667 s and 11.1333 s and 10.5667 s and 15.1 s and 13.2 s
- Paw withdrawal latency (C57BL/6 mice [4]; Time (h) BN (baseline)): 12.77 s and 12 s and 12.53 s and 10.8 s and 11.1 s and 12.43 s and 10.77 s (2×) and 12.33 s (2×) and 12.47 s (2×) and 14.53 s and 12.9 s and 11.27 s (2×) and 13.5 s and 11.07 s and 12.6 s and 10.67 s

B1: Nav1.7 CTD (fragment used in surface plasmon resonance) (domain or fragment)
chain: QEDVSATVIQRAYRRYRLRQNVK
modifications: synthetic peptide from supplementary SPR methods (stated as residues 1876-1899, 23 aa); used unconjugated as analyte over immobilized FGF13, and biotinylated (biotin position not stated) when …
- Kd [5]: 75 ± 3 nM
